Experimental data taken from patent US20100143935A1, “c-KIT Phosphorylation in Cancer” (Apocell, Inc., priority 2006, published 2010).
“Also recorded” adds a separate entry of the source.

What was measured:
melanoma = conditions: 800 mg/day; 26 patients; cited from earlier work
[1] = tested on: c-KIT phosphorylation at Y721; test: Laser scanning cytometry of phospho-Y721 c-KIT in tumor biopsies before and 2 weeks after imatinib; format: in vivo, human; conditions: responder, tumor biopsy 2 weeks after treatment vs baseline
Excerpt: FIG. 2. […] Tumor biopsies were stained by anti-phospho-Y721 c-KIT antibody followed by secondary antibody conjugated with a fluorescence probe. Laser scanning cytometry (LSC) was used to analyze the […] (MFI) across the tumor biopsies.
FIG. 3. […] (Top panels), Tumor biopsies obtained from the responder at baseline and 2 weeks after treatment (Post-treatment) were stained by anti-phospho-Y721 c-KIT antibody followed by secondary antibody conjugated with a fluorescence probe. Representative images are shown. The tumor sample stained only by the secondary antibody serves as a negative control. (Bottom panels), LSC was used to analyze the intensity of the phospho-Y721 of c-KIT (Cy5) across the entire cross section of tumor biopsies.
For c-KIT phosphorylation, tumor biopsies obtained at baseline (pre-treatment) and during the second week of treatment (post-treatment) were assayed. […] We also examined the levels of phospho-Y703.

[2] = tested on: MeWo stable cell lines expressing PK or with PTP knock down; test: Imatinib sensitivity of stable MeWo cell lines expressing PK or with PTP knock down; format: cell-based, human; conditions: PK-expressing or PTP knock down lines vs empty vector control cells
[3] = tested on: endothelial and tumor cells; test: CD31-TUNEL dual immunofluorescence of tumor biopsies before and 2 weeks after imatinib; format: in vivo, human; conditions: for apoptosis of endothelial and tumor cells: responder, after 2 weeks of imatinib treatment
Excerpt: FIG. 4. […] The stained samples were further analyzed for apoptotic cells by TUNEL assay (green). Representative images are shown. The corresponding CD31 and TUNEL images are merged (Composite).

Phospho-c-KIT (Y721) = target: T1, Phospho-c-KIT (Y721) (Homo sapiens, UniProt P10721); test: c-KIT phosphorylation (Y721) in GIST patients treated with sunitinib; format: in vivo
T1 construct: GIST Patients Treated with Sunitinib; from tissue; host or cells: tumour material of GIST patients treated with sunitinib
T1 sequence (P10721 26-976): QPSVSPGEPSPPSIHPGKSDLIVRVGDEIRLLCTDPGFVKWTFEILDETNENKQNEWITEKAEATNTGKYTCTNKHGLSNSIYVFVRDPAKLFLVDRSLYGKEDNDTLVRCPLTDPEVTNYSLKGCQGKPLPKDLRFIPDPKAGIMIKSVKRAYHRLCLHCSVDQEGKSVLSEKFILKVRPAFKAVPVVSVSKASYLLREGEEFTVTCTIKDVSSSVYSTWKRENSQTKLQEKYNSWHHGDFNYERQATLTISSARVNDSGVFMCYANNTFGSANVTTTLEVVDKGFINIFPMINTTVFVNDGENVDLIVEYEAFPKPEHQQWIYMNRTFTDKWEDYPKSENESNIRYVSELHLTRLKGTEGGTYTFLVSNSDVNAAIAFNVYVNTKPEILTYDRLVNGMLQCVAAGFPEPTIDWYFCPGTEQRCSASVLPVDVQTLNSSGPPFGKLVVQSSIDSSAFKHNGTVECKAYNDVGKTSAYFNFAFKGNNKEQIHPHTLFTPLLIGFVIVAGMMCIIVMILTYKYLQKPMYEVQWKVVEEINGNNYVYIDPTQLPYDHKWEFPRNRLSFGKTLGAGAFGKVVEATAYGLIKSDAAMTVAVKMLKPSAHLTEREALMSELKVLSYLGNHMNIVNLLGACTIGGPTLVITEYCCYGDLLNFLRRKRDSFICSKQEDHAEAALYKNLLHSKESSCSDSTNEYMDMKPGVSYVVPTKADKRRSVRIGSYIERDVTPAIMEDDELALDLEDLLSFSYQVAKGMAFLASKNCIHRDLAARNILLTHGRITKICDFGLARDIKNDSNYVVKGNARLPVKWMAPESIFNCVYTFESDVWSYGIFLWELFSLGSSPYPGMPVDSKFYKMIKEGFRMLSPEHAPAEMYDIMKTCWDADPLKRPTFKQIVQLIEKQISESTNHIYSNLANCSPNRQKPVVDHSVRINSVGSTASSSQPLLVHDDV

Phospho-c-KIT (Y703) = target: T2, Phospho-c-KIT (Y703) (Homo sapiens, UniProt P10721); test: c-KIT phosphorylation (Y703) in GIST patients treated with sunitinib; format: in vivo
T2 construct: GIST Patients Treated with Sunitinib; from tissue; host or cells: tumour material of GIST patients treated with sunitinib
T2 sequence (P10721 26-976): as above

Row | Compound | toxicity (melanoma) | levels of phospho-Y721 of c-KIT after imatinib treatment [1] | levels of phospho-Y721 of c-KIT after imatinib treatment ([1]; listed as imatinib) | sensitivity to imatinib-induced growth inhibition and apoptosis [2] | increase of apoptotic endothelial and tumor cells ([3]; nonresponding patients' tumors) | apoptosis of endothelial and tumor cells [3] | apoptosis of endothelial and tumor cells ([3]; listed as imatinib) | Phospho-c-KIT (Y721) change (Phospho-c-KIT (Y721); NON-Responder) | Phospho-c-KIT (Y721) change (Phospho-c-KIT (Y721); Responder) | Phospho-c-KIT (Y703) change (Phospho-c-KIT (Y703); NON-Responder) | Phospho-c-KIT (Y703) change (Phospho-c-KIT (Y703); Responder)
1 | Cc1ccc(NC(=O)c2ccc(CN3CCN(C)CC3)cc2)cc1Nc1nccc(-c2cccnc2)n1 [Imatinib] | significant toxicity | inhibits | significantly reduced; also recorded: significant inhibition | more sensitive | not seen | induces | higher levels of apoptosis; also recorded: substantial increase |  |  |  | 
2 | CCN(CC)CCNC(=O)c1c(C)[nH]c(/C=C2\C(=O)Nc3ccc(F)cc32)c1C [Sunitinib, N-[2-(diethylamino)ethyl]-5-[(Z)-(5-fluoro-2-oxo-1,2-dihydro-3H-indol-3-ylidene)methyl]-2,4-dimethyl-1H-pyrrole-3-carboxamide] |  |  |  |  |  |  |  | 117% increase | 94% decrease | 45% increase | 57% decrease
